As a reminder, the IC50 is the midpoint of a concentration-inhibition curve.

Chain of Recombinant human cathepsin S (CatS) (P25774 115-331): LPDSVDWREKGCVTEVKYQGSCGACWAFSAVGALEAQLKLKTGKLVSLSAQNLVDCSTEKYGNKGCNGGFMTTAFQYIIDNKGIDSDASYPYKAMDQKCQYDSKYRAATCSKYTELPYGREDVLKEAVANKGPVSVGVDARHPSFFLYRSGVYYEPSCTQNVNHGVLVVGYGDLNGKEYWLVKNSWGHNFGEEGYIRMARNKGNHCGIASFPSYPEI

One assay addresses Recombinant human cathepsin S (CatS) (Homo sapiens, UniProt P25774). In words: Recombinant human cathepsin S (CatS) inhibition assay, fluorogenic substrate Z-Valine-Valine-Arginine-AMC.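 Further: Baculovirus-expressed CatS in pH 5.0 sodium acetate buffer with DTT and NaCl, fluorescence read each minute over 20 min, inhibition derived from rate slope.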
Conditions: not given
Regarding `CS(=O)(=O)N1CCc2c(c(-c3ccc(Cl)c(C#Cc4ccc(CNC5CCc6ccccc65)cc4)c3)nn2CCCN2CCN(c3ccccn3)CC2)C1` (stereo not shown) [Example 470, N-({4-[(2-Chloro-5-{5-(methylsulfonyl)-1-[3-(4-pyridin-2-ylpiperazin-1-yl)propyl]-4,5,6,7-tetrahydro-1H-pyrazolo[4,3-c]pyridin-3-yl}phenyl)ethynyl]phenyl}methyl)-2,3-dihydro-1H-inden-1-amine], the half-maximal inhibitory concentration (IC50) was 0.05 µM.
The same measure, in the same setting: in the case of `CS(=O)(=O)N1CCc2c(c(-c3ccc(Cl)c(C#CC4CCCCC4)c3)nn2C[C@@H](O)CN2CCC(C3CCNCC3)CC2)C1` [Example 472, (2S)-1-(4,4′-Bipiperidin-1-yl)-3-{3-[4-chloro-3-(cyclohexylethynyl)phenyl]-5-(methylsulfonyl)-4,5,6,7-tetrahydro-1H-pyrazolo[4,3-c]pyridin-1-yl}propan-2-ol] it was 4.51 µM; in that of `CS(=O)(=O)N1CCc2c(c(-c3ccc(Cl)c(C#CCc4ccccc4)c3)nn2C[C@@H](O)CN2CCC(C3CCNCC3)CC2)C1` [Example 474, (2S)-1-(4,4′-Bipiperidin-1-yl)-3-{3-[4-chloro-3-(3-phenylprop-1-yn-1-yl)phenyl]-5-(methylsulfonyl)-4,5,6,7-tetrahydro-1H-pyrazolo[4,3-c]pyridin-1-yl}propan-2-ol], 0.43 µM.
Same read-out and setting: in the case of `NC(=O)N1CCc2c(c(-c3ccc(Cl)c(CCc4ccc(CNCc5ccc(Cl)cc5)cc4)c3)nn2CCCN2CCOCC2)C1` [Example 476, 3-(4-Chloro-3-{2-[4-({[(4-chlorophenyl)methyl]amino}methyl)phenyl]ethyl}phenyl)-1-(3-morpholin-4-ylpropyl)-1,4,6,7-tetrahydro-5H-pyrazolo[4,3-c]pyridine-5-carboxamide] it was 0.12 µM; in that of `CC(NCc1ccc(C#Cc2cc(-c3nn(CCCN4CCN(c5ccccc5)CC4)c4c3CN(S(C)(=O)=O)CC4)ccc2Cl)cc1)c1ccccc1` (stereo not shown) [Example 478, N-({4-[(2-Chloro-5-{5-(methylsulfonyl)-1-[3-(4-phenylpiperazin-1-yl)propyl]-4,5,6,7-tetrahydro-1H-pyrazolo[4,3-c]pyridin-3-yl}phenyl)ethynyl]phenyl}methyl)-1-phenylethanamine], 0.04 µM.
Take `NC(=O)N1CCc2c(c(-c3ccc(Cl)c(CCc4ccc(Cl)cc4)c3)nn2C[C@@H](O)CN2CCC(C3CCNCC3)CC2)C1` [Example 479, 1-[(2S)-3-(4,4′-Bipiperidin-1-yl)-2-hydroxypropyl]-3-{4-chloro-3-[2-(4-chlorophenyl)ethyl]phenyl}-1,4,6,7-tetrahydro-5H-pyrazolo[4,3-c]pyridine-5-carboxamide]: the 50% inhibitory concentration (IC50) is 0.02 µM.
Turning to `C[C@H]1COCCN1CCCn1nc(-c2ccc(Cl)c(C#Cc3ccc4c(c3)CN(C3CC3)CC4)c2)c2c1CCNC2` [Example 481, 7-{[2-Chloro-5-(1-{3-[(3S)-3-methylmorpholin-4-yl]propyl}-4,5,6,7-tetrahydro-1H-pyrazolo[4,3-c]pyridin-3-yl)phenyl]ethynyl}-2-cyclopropyl-1,2,3,4-tetrahydroisoquinoline], the IC50 was 3.52 µM.
Still for that read-out and setting: in the case of `CS(=O)(=O)N1CCc2c(c(-c3ccc(Cl)c(C#Cc4ccc5c(c4)CC(C(=O)N4CCOCC4)NC5)c3)nn2CCCN2CCOCC2)C1` (stereo not shown) [Example 483, 6-({2-Chloro-5-[5-(methylsulfonyl)-1-(3-morpholin-4-ylpropyl)-4,5,6,7-tetrahydro-1H-pyrazolo[4,3-c]pyridin-3-yl]phenyl}ethynyl)-3-(morpholin-4-ylcarbonyl)-1,2,3,4-tetrahydroisoquinoline] it was 0.14 µM.
Still for that read-out and setting: in the case of `CS(=O)(=O)N1CCc2c(c(-c3ccc(Cl)c(C#Cc4ccc5c(c4)CC(C(=O)N4CCCC4)NC5)c3)nn2CCCN2CCOCC2)C1` (stereo not shown) [Example 484, 6-({2-Chloro-5-[5-(methylsulfonyl)-1-(3-morpholin-4-ylpropyl)-4,5,6,7-tetrahydro-1H-pyrazolo[4,3-c]pyridin-3-yl]phenyl}ethynyl)-3-(pyrrolidin-1-ylcarbonyl)-1,2,3,4-tetrahydroisoquinoline] it was 0.18 µM.

The same assay, now with this note: CatS IC50.
`CS(=O)(=O)N1CCc2c(c(-c3ccc(Cl)c(C#Cc4ccc(CNCCO)cc4)c3)nn2CCCN2CCOCC2)C1` [Example 469, 2-({[4-({2-Chloro-5-[5-(methylsulfonyl)-1-(3-morpholin-4-ylpropyl)-4,5,6,7-tetrahydro-1H-pyrazolo[4,3-c]pyridin-3-yl]phenyl}ethynyl)phenyl]methyl}amino)ethanol]: the IC50 stood at 0.53 µM.
Regarding `CS(=O)(=O)N1CCc2c(c(-c3ccc(Cl)c(C#Cc4ccccn4)c3)nn2C[C@@H](O)CN2CCC(C3CCNCC3)CC2)C1` [Example 473, (2S)-1-(4,4′-Bipiperidin-1-yl)-3-{3-[4-chloro-3-(pyridin-2-ylethynyl)phenyl]-5-(methylsulfonyl)-4,5,6,7-tetrahydro-1H-pyrazolo[4,3-c]pyridin-1-yl}propan-2-ol], the half-maximal inhibitory concentration (IC50) was found to be 0.12 µM.
The same measure, in the same setting: in the case of `CS(=O)(=O)N1CCc2c(c(-c3ccc(Cl)c(C#Cc4cccnc4)c3)nn2C[C@@H](O)CN2CCC(C3CCNCC3)CC2)C1` [Example 475, (2S)-1-(4,4′-Bipiperidin-1-yl)-3-{3-[4-chloro-3-(pyridin-3-ylethynyl)phenyl]-5-(methylsulfonyl)-4,5,6,7-tetrahydro-1H-pyrazolo[4,3-c]pyridin-1-yl}propan-2-ol] it was 0.18 µM.
In the case of `NC(=O)N1CCc2c(c(-c3ccc(Cl)c(C#Cc4ccc(CN[C@@H]5CCCc6ccccc65)cc4)c3)nn2CCCN2CCOCC2)C1` [Example 477, 3-{4-Chloro-3-[(4-{[(1R)-1,2,3,4-tetrahydronaphthalen-1-ylamino]methyl}phenyl)ethynyl]phenyl}-1-(3-morpholin-4-ylpropyl)-1,4,6,7-tetrahydro-5H-pyrazolo[4,3-c]pyridine-5-carboxamide], the half-inhibitory concentration (IC50) came out at 0.1 µM.
On to `CS(=O)(=O)N1CCc2c(c(-c3ccc(Cl)c(C#Cc4ccc(CNCC(F)(F)F)cc4)c3)nn2CCCN2CCN(c3ccccc3)CC2)C1` [Example 480, N-({4-[(2-Chloro-5-{5-(methylsulfonyl)-1-[3-(4-phenylpiperazin-1-yl)propyl]-4,5,6,7-tetrahydro-1H-pyrazolo[4,3-c]pyridin-3-yl}phenyl)ethynyl]phenyl}methyl)-2,2,2-trifluoroethanamine], for which the half-inhibitory concentration (IC50) turned out to be 0.1 µM.
On the same count and under the same terms, then `CS(=O)(=O)N1CCc2c(c(-c3ccc(Cl)c(C#Cc4ccc5cc[nH]c5n4)c3)nn2CCCN2CCOCC2)C1` [Example 482, 3-[4-Chloro-3-(1H-pyrrolo[2,3-b]pyridin-6-ylethynyl)phenyl]-5-(methylsulfonyl)-1-(3-morpholin-4-ylpropyl)-4,5,6,7-tetrahydro-1H-pyrazolo[4,3-c]pyridine], with 0.18 µM; and `CN1CCN(C(=O)[C@@H]2Cc3ccc(C#Cc4cc(-c5nn(CCCN6CCOCC6)c6c5CN(S(C)(=O)=O)CC6)ccc4Cl)cc3CN2)CC1` [Example 485, (3S)-7-({2-Chloro-5-[5-(methylsulfonyl)-1-(3-morpholin-4-ylpropyl)-4,5,6,7-tetrahydro-1H-pyrazolo[4,3-c]pyridin-3-yl]phenyl}ethynyl)-3-[(4-methylpiperazin-1-yl)carbonyl]-1,2,3,4-tetrahydroisoquinoline], with 0.05 µM.

For the origin of these results see patent US20080200454A1, “CARBON-LINKED TETRAHYDRO-PYRAZOLO-PYRIDINE MODULATORS OF CATHEPSIN S” (priority 2007, published 2008).
